# In ChEMBL document CHEMBL5537185, “Discovery of the First-in-Class RORγ Covalent Inhibitors for Treatment of Castration-Resistant Prostate Cancer” (J Med Chem, 2024):
# Calls of active or inactive are those of the source. The calls are words filed in the database; no cut-off is given here.
# Columns and labels:
# [1] = target: T1, Nuclear receptor ROR-gamma (Homo sapiens, UniProt P51449); assay: Inhibition of Gal4-fused RORgamma LBD (unknown origin) expressed in HEK293T cells incubated for 48 hrs by luciferase based assay; type: cell-based
# T1 sequence (P51449 whole entry): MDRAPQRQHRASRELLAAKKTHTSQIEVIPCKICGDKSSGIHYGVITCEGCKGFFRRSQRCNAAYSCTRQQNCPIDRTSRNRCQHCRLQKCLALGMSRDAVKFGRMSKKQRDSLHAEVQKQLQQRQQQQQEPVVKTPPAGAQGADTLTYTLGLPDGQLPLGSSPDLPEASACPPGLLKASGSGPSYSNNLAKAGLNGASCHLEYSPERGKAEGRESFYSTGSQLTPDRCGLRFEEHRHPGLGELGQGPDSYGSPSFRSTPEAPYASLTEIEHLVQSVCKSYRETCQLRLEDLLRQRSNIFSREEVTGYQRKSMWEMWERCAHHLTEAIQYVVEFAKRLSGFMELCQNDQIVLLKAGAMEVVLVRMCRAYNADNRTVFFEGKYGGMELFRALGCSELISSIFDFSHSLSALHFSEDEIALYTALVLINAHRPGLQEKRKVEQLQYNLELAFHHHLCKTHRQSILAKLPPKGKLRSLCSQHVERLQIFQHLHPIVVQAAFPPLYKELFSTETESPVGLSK
# [2] = Metabolic stability in mouse liver microsomes assessed as half life at 0.1 uM preincubated for 10 mins followed by NADPH addition and measured upto 60 mins by LC-MS/MS analysis; type: ADME, Microsome; settings: time < 70 min
# LNCaP = assay: Antiproliferative activity against human LNCaP cells incubated for 4 days by CCK8 assay; settings: 96 h
# LNCaP C4-2B [3] = assay: Antiproliferative activity against human LNCaP C4-2B cells incubated for 4 days by CCK8 assay; settings: 96 h
# CWR22R [4] = assay: Antiproliferative activity against human 22Rv1 cells incubated for 4 days by CCK8 assay; settings: 22Rv1, 96 h
# [5] = Cmax in ICR mouse at 10 mg/kg, po measured upto 24 hrs by LC-MS/MS analysis; type: ADME, organism-based; settings: in vivo
# CWR22R [6] = assay: Induction of apoptosis in human 22Rv1 cells assessed as increase in caspase-3 activity at 1.25 to 5 uM by Western blot analysis; type: functional, cell-based; settings: dose 1.25-5 µM
# LNCaP C4-2B [7] = assay: Induction of apoptosis in human LNCaP C4-2B cells assessed as increase in caspase-3 activity at 1.25 to 5 uM by Western blot analysis; type: functional, cell-based; settings: dose 1.25-5 µM
# CWR22R [8] = assay: Antitumor activity against human 22Rv1 cells xenografted in ip dosed NOD/SCID mouse assessed as tumor growth inhibition administered five times a week for 2 weeks and measured two times per week; type: functional, organism-based; settings: dose 5-10 mg/kg
# LNCaP C4-2B [9] = assay: Inhibition of colony formation in human LNCaP C4-2B cells compound addition at every 3 days and measured after 14 days by crystal violet staining based assay; type: functional, cell-based; settings: dose 1.25-5 µM, time 14.0 day
# CWR22R [10] = assay: Downregulation of NKX3-1 mRNA expression in human 22Rv1 cells at 1.25 to 5 uM incubated for 48 hrs by qRT-PCR analysis; type: functional, cell-based; settings: dose 1.25-5 µM
# CWR22R [11] = assay: Downregulation of AR-V7 expression in human 22Rv1 cells incubated for 24 to 72 hrs by Western blot analysis; type: functional, cell-based; settings: dose 1.25-5 µM, time 24-72 hrs
# CWR22R [12] = assay: Antitumor activity against human 22Rv1 cells xenografted in NOD/SCID mouse assessed as tumor growth inhibition at 10 mg/kg, ip administered five times a week for 2 weeks and measured two times per week; type: functional; settings: 22Rv1, 336 h, read-out: TGI
# [13] = Volume of distribution at steady state in ICR mouse at 3 mg/kg, iv measured upto 24 hrs by LC-MS/MS analysis; type: ADME, organism-based; settings: in vivo, read-out: Vdss
# CWR22R [14] = assay: Downregulation of AR expression in human 22Rv1 cells incubated for 48 hrs by qRT-PCR analysis; type: functional, cell-based; settings: dose 1.25-5 µM
# LNCaP C4-2B [15] = assay: Downregulation of AR-V7 expression in human LNCaP C4-2B cells incubated for 48 hrs by qRT-PCR analysis; type: functional, cell-based; settings: dose 1.25-5 µM
# CWR22R [16] = assay: Downregulation of KLK2 mRNA expression in human 22Rv1 cells at 1.25 to 5 uM incubated for 48 hrs by qRT-PCR analysis; type: functional, cell-based; settings: dose 1.25-5 µM
# CWR22R [17] = assay: Downregulation of KLK3 mRNA expression in human 22Rv1 cells at 1.25 to 5 uM incubated for 48 hrs by qRT-PCR analysis; type: functional, cell-based; settings: dose 1.25-5 µM
# [18] = Oral bioavailability in ICR mouse at 10 mg/kg measured upto 24 hrs by LC-MS/MS analysis; type: ADME, organism-based; settings: in vivo
# LNCaP C4-2B [19] = assay: Downregulation of AR expression in human LNCaP C4-2B cells at 1.25 to 5 uM incubated for 48 hrs by qRT-PCR analysis; type: functional, cell-based; settings: dose 1.25-5 µM
# [20] = AUClast in ICR mouse at 3 mg/kg, iv measured upto 24 hrs by LC-MS/MS analysis; type: ADME, organism-based; settings: in vivo
# CWR22R [21] = assay: Downregulation of AR expression in human 22Rv1 cells incubated for 24 to 72 hrs by Western blot analysis; type: functional, cell-based; settings: dose 1.25-5 µM, time 24-72 hrs
# LNCaP C4-2B [22] = assay: Downregulation of AR expression in human LNCaP C4-2B cells incubated for 24 to 72 hrs by Western blot analysis; type: functional, cell-based; settings: dose 1.25-5 µM, time 24-72 hrs
# [23] = AUCinfinity in ICR mouse at 10 mg/kg, po measured upto 24 hrs by LC-MS/MS analysis; type: ADME, organism-based; settings: in vivo
# LNCaP C4-2B [24] = assay: Induction of apoptosis in human LNCaP C4-2B cells assessed as increase in caspase-7 activity at 1.25 to 5 uM by Western blot analysis; type: functional, cell-based; settings: dose 1.25-5 µM
# [25] = Cmax in ICR mouse at 3 mg/kg, iv measured upto 24 hrs by LC-MS/MS analysis; type: ADME, organism-based; settings: in vivo
# [26] = Toxicity in NOD/SCID mouse assessed as change in body weight at 5 to 10 mg/kg, ip administered five times a week for 2 weeks and measured two times per week; type: organism-based; settings: in vivo, 336 h, dose 5-10 mg/kg
# LNCaP C4-2B [27] = assay: Downregulation of AR-V7 expression in human LNCaP C4-2B cells incubated for 24 to 72 hrs by Western blot analysis; type: functional, cell-based; settings: dose 1.25-5 µM, time 24-72 hrs
# [28] = target: T2, Nuclear receptor ROR-gamma (Homo sapiens) (UniProt P51449); assay: Covalent binding affinity to RORgamma (unknown origin) expressed in Escherichia coli assessed as covalent adduct formation incubated for 4 hrs by mass spectrometric analysis
# T2 sequence (whole entry): T1 sequence (P51449 whole entry)
# [29] = Half life in ICR mouse at 3 mg/kg, iv measured upto 24 hrs by LC-MS/MS analysis; type: ADME, organism-based; settings: in vivo
# LNCaP C4-2B [30] = assay: Downregulation of KLK2 mRNA expression in human LNCaP C4-2B cells at 1.25 to 5 uM incubated for 48 hrs by qRT-PCR analysis; type: functional, cell-based; settings: dose 1.25-5 µM
# CWR22R [31] = assay: Inhibition of colony formation in human 22Rv1 cells compound addition at every 3 days and measured after 14 days by crystal violet staining based assay; type: functional, cell-based; settings: dose 1.25-5 µM, time 14.0 day
# [32] = AUClast in ICR mouse at 10 mg/kg, po measured upto 24 hrs by LC-MS/MS analysis; type: ADME, organism-based; settings: in vivo
# CWR22R [33] = assay: Antitumor activity against human 22Rv1 cells xenografted in NOD/SCID mouse assessed as tumor growth inhibition at 5 mg/kg, ip administered five times a week for 2 weeks and measured two times per week; type: functional; settings: 22Rv1, 336 h, read-out: TGI
# CWR22R [34] = assay: Induction of apoptosis in human 22Rv1 cells assessed as increase in caspase-7 activity at 1.25 to 5 uM by Western blot analysis; type: functional, cell-based; settings: dose 1.25-5 µM
# [35] = Toxicity in NOD/SCID mouse assessed as tolerability at 5 to 10 mg/kg, ip administered five times a week for 2 weeks and measured two times per week; type: organism-based; settings: in vivo, 336 h, dose 5-10 mg/kg
# CWR22R [36] = assay: Downregulation of AR expression in human 22Rv1 cells at 1.25 to 5 uM by Western blot analysis; type: functional, cell-based; settings: dose 1.25-5 µM, time 24-72 hrs, TDE = time-dependent effect
# [37] = Half life in ICR mouse at 10 mg/kg, po measured upto 24 hrs by LC-MS/MS analysis; type: ADME, organism-based; settings: in vivo
# LNCaP C4-2B [38] = assay: Downregulation of NKX3-1 mRNA expression in human LNCaP C4-2B cells at 1.25 to 5 uM incubated for 48 hrs by qRT-PCR analysis; type: functional, cell-based; settings: dose 1.25-5 µM
# CWR22R [39] = assay: Downregulation of AR-V7 expression in human 22Rv1 cells incubated for 48 hrs by qRT-PCR analysis; type: functional, cell-based; settings: dose 1.25-5 µM
# LNCaP C4-2B [40] = assay: Downregulation of AR expression in human LNCaP C4-2B cells at 1.25 to 5 uM by Western blot analysis; type: functional, cell-based; settings: dose 1.25-5 µM, time 24-72 hrs, TDE = time-dependent effect
# LNCaP C4-2B [41] = assay: Downregulation of AR-V7 expression in human LNCaP C4-2B cells at 1.25 to 5 uM by Western blot analysis; type: functional, cell-based; settings: dose 1.25-5 µM, TDE = time-dependent effect
# CWR22R [42] = assay: Downregulation of AR-V7 expression in human 22Rv1 cells at 1.25 to 5 uM by Western blot analysis; type: functional, cell-based; settings: dose 1.25-5 µM, time 24-72 hrs, TDE = time-dependent effect
# [43] = AUCinfinity in ICR mouse at 3 mg/kg, iv measured upto 24 hrs by LC-MS/MS analysis; type: ADME, organism-based; settings: in vivo
# LNCaP C4-2B [44] = assay: Downregulation of KLK3 mRNA expression in human LNCaP C4-2B cells at 1.25 to 5 uM incubated for 48 hrs by qRT-PCR analysis; type: functional, cell-based; settings: dose 1.25-5 µM
# [45] = Clearance in ICR mouse at 3 mg/kg, iv measured upto 24 hrs by LC-MS/MS analysis; type: ADME, organism-based; settings: in vivo
compound,measurement,setting,value
C=CC(=O)Nc1ccccc1-c1ccc(NC(=O)c2ccc(S(C)(=O)=O)cc2)cc1C,IC50,[1],5710 nM
C=CC(=O)Nc1ccccc1-c1ccc(NC(=O)Cc2ccc(S(=O)(=O)CC)cc2)cc1F,half-life at 0.1 µM,[2],8.17 min
same,IC50,LNCaP,530 nM
same,IC50,LNCaP C4-2B [3],730 nM
same,IC50,[1],1100 nM
same,IC50,CWR22R [4],1440 nM
C/C=C/C(=O)Nc1ccccc1-c1ccc(NC(=O)Cc2ccc(S(=O)(=O)CC)cc2)cc1C,IC50,[1],1630 nM
C=CC(=O)Nc1ccccc1-c1ccc(NC(=O)c2ccc(S(C)(=O)=O)cn2)cc1C,IC50,[1],5440 nM
C=CC(=O)Nc1ccccc1-c1ccc(NC(=O)c2cnc(C)nc2)cc1C,IC50,[1],2580 nM
C=CC(=O)Nc1ccccc1-c1ccc(NC(=O)Cc2ccc(S(=O)(=O)CC)cc2)cc1Cl,Cmax,[5],270 ng/mL
same,Activity,CWR22R [6],Active
same,Activity,LNCaP C4-2B [7],Active
same,Activity,CWR22R [8],Dose-Dependent Effect
same,inhibition,LNCaP C4-2B [9],Dose-Dependent Effect
same,Activity,CWR22R [10],Active
same,Activity,CWR22R [11],Dose-Dependent Effect
same,inhibition in vivo at 10 mg/kg,CWR22R [12],62.6%
same,Vd,[13],0.75 L/kg
same,Activity,CWR22R [14],Dose-Dependent Effect
same,Activity,LNCaP C4-2B [15],Dose-Dependent Effect
same,Activity,CWR22R [16],Active
same,Activity,CWR22R [17],Active
same,half-life at 0.1 µM,[2],21.3 min
same,bioavailability,[18],12.7%
same,Activity,LNCaP C4-2B [19],Dose-Dependent Effect
same,AUC(0-t) at 24 h,[20],584 ng·h/mL
same,Activity,CWR22R [21],Dose-Dependent Effect
same,Activity,LNCaP C4-2B [22],Dose-Dependent Effect
same,AUC(0-inf),[23],251 ng·h/mL
same,Activity,LNCaP C4-2B [24],Active
same,Cmax,[25],2000 ng/mL
same,Activity,[26],Non-Toxic
same,Activity,LNCaP C4-2B [27],Dose-Dependent Effect
same,Activity,[28],Active
same,half-life,[29],13.2 min
same,Activity,LNCaP C4-2B [30],Active
same,inhibition,CWR22R [31],Dose-Dependent Effect
same,AUC(0-t) at 24 h,[32],248 ng·h/mL
same,inhibition in vivo at 5 mg/kg,CWR22R [33],41.9%
same,Activity,CWR22R [34],Active
same,IC50,LNCaP,630 nM
same,Activity,[35],Non-Toxic
same,IC50,LNCaP C4-2B [3],470 nM
same,Activity,CWR22R [36],Tde
same,half-life,[37],36.6 min
same,Activity,LNCaP C4-2B [38],Active
same,IC50,[1],210 nM
same,Activity,CWR22R [39],Dose-Dependent Effect
same,Activity,LNCaP C4-2B [40],Tde
same,Activity,LNCaP C4-2B [41],Tde
same,Activity,CWR22R [42],Tde
same,AUC(0-inf),[43],585 ng·h/mL
same,Activity,LNCaP C4-2B [44],Active
same,IC50,CWR22R [4],770 nM
same,clearance,[45],86.8 mL/min/kg
